Assay results published in ChEMBL document CHEMBL3526087, “Inhibition of human sterol Δ7-reductase and other postlanosterol enzymes by LK-980, a novel inhibitor of cholesterol synthesis” (Drug Metab Dispos, 2011).

How the values were obtained:
[1] = target: T1, 3-hydroxy-3-methylglutaryl-coenzyme A reductase (Homo sapiens) (UniProt P04035); assay: Inhibition of HMGCR activity in human hepatocytes assessed as increase in FF-MAS level per gram of protein by GC-MS analysis (reference value: 0.7 ug); assay type: cell-based; conditions: Hepatocyte
T1 sequence (whole entry): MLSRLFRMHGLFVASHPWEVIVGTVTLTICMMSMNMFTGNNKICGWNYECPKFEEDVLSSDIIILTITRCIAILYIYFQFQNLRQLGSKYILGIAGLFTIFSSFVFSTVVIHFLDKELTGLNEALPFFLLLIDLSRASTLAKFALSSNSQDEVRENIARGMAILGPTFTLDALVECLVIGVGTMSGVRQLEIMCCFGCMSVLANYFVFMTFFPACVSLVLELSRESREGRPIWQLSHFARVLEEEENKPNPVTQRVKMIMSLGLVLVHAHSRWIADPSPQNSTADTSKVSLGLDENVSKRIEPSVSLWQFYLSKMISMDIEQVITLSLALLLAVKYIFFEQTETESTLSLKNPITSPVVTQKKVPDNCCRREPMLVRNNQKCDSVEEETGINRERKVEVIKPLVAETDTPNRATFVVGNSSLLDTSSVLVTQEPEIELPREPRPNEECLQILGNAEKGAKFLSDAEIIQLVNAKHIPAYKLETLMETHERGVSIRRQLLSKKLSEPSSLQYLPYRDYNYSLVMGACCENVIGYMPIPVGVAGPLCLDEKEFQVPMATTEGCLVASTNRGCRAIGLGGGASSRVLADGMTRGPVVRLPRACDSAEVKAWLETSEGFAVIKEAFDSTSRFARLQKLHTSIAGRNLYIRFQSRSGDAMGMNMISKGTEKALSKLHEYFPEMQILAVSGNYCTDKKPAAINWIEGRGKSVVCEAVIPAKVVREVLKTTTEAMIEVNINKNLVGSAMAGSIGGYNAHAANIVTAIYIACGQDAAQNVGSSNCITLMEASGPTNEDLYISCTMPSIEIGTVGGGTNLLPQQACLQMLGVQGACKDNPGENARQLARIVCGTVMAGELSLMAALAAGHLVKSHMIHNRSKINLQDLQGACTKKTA

[2] = target: T1, 3-hydroxy-3-methylglutaryl-coenzyme A reductase (Homo sapiens); assay: Inhibition of HMGCR activity in human hepatocytes assessed as increase in lathosterol level per gram of protein by GC-MS analysis (reference value: 47.7 ug); assay type: cell-based; conditions: Hepatocyte
[3] = target: T1, 3-hydroxy-3-methylglutaryl-coenzyme A reductase (Homo sapiens); assay: Inhibition of HMGCR activity in human hepatocytes assessed as increase in 7-dehydrocholesterol level per gram of protein by GC-MS analysis (reference value: 16.3 ug); assay type: cell-based; conditions: Hepatocyte
[4] = target: T1, 3-hydroxy-3-methylglutaryl-coenzyme A reductase (Homo sapiens); assay: Inhibition of HMGCR activity in human hepatocytes assessed as increase in desmosterol level per gram of protein by GC-MS analysis (reference value: 5.5 ug); assay type: cell-based; conditions: Hepatocyte
[5] = target: T1, 3-hydroxy-3-methylglutaryl-coenzyme A reductase (Homo sapiens); assay: Inhibition of HMGCR activity in human hepatocytes assessed as mevalonate formed per mg of protein at 100 uM by GC-MS analysis (reference value: 69 9 pmol/min); assay type: cell-based; conditions: Hepatocyte
[6] = target: T2, Lathosterol oxidase (Homo sapiens) (UniProt O75845); assay: Inhibition of SC5DL activity in human hepatocytes assessed as increase in lathosterol level per gram of protein by GC-MS analysis (reference value: 47.7 ug); assay type: cell-based; conditions: Hepatocyte
T2 sequence (whole entry): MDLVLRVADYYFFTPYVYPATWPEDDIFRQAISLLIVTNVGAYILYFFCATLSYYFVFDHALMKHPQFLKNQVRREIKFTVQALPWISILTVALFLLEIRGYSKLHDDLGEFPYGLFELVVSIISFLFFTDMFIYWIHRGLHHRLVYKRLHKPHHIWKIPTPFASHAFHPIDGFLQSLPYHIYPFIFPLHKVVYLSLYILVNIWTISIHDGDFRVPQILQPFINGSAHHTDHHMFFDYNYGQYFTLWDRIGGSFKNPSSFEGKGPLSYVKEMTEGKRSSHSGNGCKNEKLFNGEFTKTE

[7] = target: T3, Delta(14)-sterol reductase TM7SF2 (Homo sapiens) (UniProt O76062); assay: Inhibition of DHCR14 activity in human hepatocytes assessed as increase in FF-MAS level per gram of protein by GC-MS analysis (reference value: 0.7 ug); assay type: cell-based; conditions: Hepatocyte
T3 sequence (whole entry): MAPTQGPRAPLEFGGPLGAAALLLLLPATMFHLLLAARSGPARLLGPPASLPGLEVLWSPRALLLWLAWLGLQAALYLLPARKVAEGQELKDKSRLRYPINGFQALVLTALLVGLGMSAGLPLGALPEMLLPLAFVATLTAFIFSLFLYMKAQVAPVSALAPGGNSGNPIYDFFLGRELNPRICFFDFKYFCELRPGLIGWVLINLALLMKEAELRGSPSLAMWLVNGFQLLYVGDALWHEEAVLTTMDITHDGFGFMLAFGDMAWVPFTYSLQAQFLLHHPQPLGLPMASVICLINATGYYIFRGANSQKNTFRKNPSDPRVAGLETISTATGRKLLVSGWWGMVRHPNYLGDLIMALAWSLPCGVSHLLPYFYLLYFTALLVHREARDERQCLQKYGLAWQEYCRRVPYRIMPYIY

Cytochrome P450 3A4 = Cytochrome P450 3A4 (Homo sapiens, UniProt P08684); assay: Effect on CYP3A4 in human hepatocytes assessed as nifedipine oxidation activity using nifedipine as substrate at 10 uM; assay type: ADME, cell-based, Hepatocyte
[8] = target: T4, 7-dehydrocholesterol reductase (Homo sapiens) (UniProt Q9UBM7); assay: Inhibition of DHCR7 activity in human hepatocytes assessed as increase in 7-dehydrocholesterol level per gram of protein by GC-MS analysis (reference value: 16.3 ug); assay type: cell-based; conditions: Hepatocyte
T4 sequence (whole entry): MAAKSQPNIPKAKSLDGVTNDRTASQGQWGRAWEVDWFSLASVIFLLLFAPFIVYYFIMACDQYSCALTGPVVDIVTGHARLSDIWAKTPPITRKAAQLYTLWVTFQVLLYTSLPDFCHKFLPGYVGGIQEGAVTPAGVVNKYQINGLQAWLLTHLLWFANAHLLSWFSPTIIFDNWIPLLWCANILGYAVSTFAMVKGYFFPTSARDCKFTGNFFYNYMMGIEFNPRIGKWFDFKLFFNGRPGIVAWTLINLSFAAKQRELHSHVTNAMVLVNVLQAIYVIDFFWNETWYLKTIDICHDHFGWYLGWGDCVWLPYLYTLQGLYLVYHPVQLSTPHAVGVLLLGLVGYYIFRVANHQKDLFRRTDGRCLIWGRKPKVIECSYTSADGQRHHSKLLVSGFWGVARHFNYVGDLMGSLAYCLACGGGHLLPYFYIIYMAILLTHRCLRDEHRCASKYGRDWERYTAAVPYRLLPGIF

[9] = target: T5, Delta(24)-sterol reductase (Homo sapiens) (UniProt Q15392); assay: Inhibition of DHCR24 activity in human hepatocytes assessed as increase in desmosterol level per gram of protein by GC-MS analysis (reference value: 5.5 ug); assay type: cell-based; conditions: Hepatocyte
T5 sequence (whole entry): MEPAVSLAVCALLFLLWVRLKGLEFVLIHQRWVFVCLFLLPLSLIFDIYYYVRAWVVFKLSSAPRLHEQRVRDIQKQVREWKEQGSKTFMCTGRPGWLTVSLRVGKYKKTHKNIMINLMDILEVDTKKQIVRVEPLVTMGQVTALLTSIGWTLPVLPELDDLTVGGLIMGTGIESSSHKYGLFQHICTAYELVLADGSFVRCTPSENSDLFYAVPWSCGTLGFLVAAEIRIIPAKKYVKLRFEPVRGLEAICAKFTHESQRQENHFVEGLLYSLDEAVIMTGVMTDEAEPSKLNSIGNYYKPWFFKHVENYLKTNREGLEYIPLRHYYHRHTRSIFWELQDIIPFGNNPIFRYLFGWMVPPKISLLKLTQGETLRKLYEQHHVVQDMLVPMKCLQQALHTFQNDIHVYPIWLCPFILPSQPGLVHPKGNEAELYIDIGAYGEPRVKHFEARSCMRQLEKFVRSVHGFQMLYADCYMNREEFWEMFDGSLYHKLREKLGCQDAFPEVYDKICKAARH

Hepatocyte = assay: Effect on CYP3A4 mRNA expression in human hepatocytes at 10 uM after 12 to 48 hrs by RT-PCR analysis; assay type: ADME, cell-based

Cytochrome P450 3A4, sequence (P08684 whole entry): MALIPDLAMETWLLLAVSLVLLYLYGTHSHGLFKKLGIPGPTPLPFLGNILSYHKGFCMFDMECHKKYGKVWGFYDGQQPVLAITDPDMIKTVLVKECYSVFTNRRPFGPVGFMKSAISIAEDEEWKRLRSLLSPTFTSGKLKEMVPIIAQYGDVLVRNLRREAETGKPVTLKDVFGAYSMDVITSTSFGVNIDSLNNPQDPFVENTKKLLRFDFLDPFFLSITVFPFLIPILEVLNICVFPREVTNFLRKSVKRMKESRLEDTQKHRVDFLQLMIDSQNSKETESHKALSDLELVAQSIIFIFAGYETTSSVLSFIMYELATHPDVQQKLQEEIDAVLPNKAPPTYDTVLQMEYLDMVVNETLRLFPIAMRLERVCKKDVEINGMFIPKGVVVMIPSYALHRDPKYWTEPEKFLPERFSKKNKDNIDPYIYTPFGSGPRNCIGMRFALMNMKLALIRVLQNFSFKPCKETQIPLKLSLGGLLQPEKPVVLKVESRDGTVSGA

Structure (SMILES) | Activity [1] [µg] | Activity [2] [µg] | Activity [3] [µg] | Activity [4] [µg] | Activity [5] [pmol/min] | Activity [6] [µg] | Activity [7] [µg] | Activity (Cytochrome P450 3A4) | Activity [8] [µg] | Activity [9] [µg] | Activity (Hepatocyte)
CC(C)c1c(C(=O)Nc2ccccc2)c(-c2ccccc2)c(-c2ccc(F)cc2)n1CC[C@@H](O)C[C@@H](O)CC(=O)O | 0.3 | 25.8 | 15.8 | 2.7 | – | – | – | – | – | – | –
OC(CN1CCN(CCc2ccccc2)CC1)c1cccnc1 (stereo unspecified) | – | – | – | – | 76 | 119 | 2.9 | Non-toxic | 556 | 10.1 | Non-toxic
